≈ marks a conversion by molar mass, not a printed value. Like-named read-outs stand apart in the source and are kept apart here.
Assays:
Francisella tularensis = experiment: microbe, parasite or virus in culture; assay type: cell-based; details: read-out: Francisella tularensis NR-577 MIC, strain NR-577
N. gonorrhoeae = experiment: microbe, parasite or virus in culture; assay type: cell-based; details: Neisseria gonorrhoeae, read-out: Neisseria gonorrhoeae WHO 914 MIC, strain WHO 914
HepG2 cells = experiment: Cytotoxicity MTT assay in HepG2 cells; assay type: cell-based; details: Homo sapiens
Procedure: Additionally, the antimicrobial compounds were analyzed for cytotoxicity. […] We utilized the standard MTT assay (Promega CellTiter 96) and GraphPad Prism 7 software to determine EC50 values for each analogue. Briefly, 20,000 HepG2 cells in 200 μl of the ATCC recommended media were seeded in each well of a 96-well plate with a moisture barrier created in the outermost wells. The cells were allowed to attach overnight at 37° C., and then observed under phase contrast microscopy for proper morphological characteristics. […] Once incubations were complete, the spectrophotometric absorbance of the samples was measured at a wavelength of 595 nm. […] For the HepaRG assay, NoSpin HepaRG™ cells (Lonza, cat #NSHPRG) were thawed and plated with 20,000 cells per well. They were allowed to attach for 4 h (optimal DME profile per Lonza's testing) before dosing following the identical protocol as above.

Staphylococcus aureus = experiment: microbe, parasite or virus in culture
S. aureus = experiment: SYTOX green cell permeability assay on S. aureus; assay type: cell-based, Staphylococcus aureus; details: concentrations relative to the MIC, FIG. 1A

## Fc1ccc2[nH]cc(Cc3ccc(Br)cc3)c2c1 [Compound 174EB, 3-(4-bromobenzyl)-5-fluoro-1H-indole]
Francisella tularensis
  MIC: 2 µg/mL (≈ 6.58 µM)
N. gonorrhoeae
  MIC: 8 µg/mL (≈ 26.3 µM)

## Clc1ccc(Sc2c[nH]c3ccc(Br)cc23)cc1 [Compound 174J, 5-bromo-3-((4-chlorophenyl)thio)-1H-indole]
HepG2 cells
  EC50: 25.3 µg/mL (≈ 74.7 µM)

## Brc1cccc(Sc2c[nH]c3ccc(Br)cc23)c1 [Compound 174N, 5-bromo-3-((3-bromophenyl)thio)-1H-indole]
HepG2 cells
  EC50: 29.5 µg/mL (≈ 77 µM)
Staphylococcus aureus; MRSA, read-out: Staphylococcus aureus MIC, MRSA strain HM-467
  MIC: 3.13 µg/mL (≈ 8.17 µM)
Staphylococcus aureus; MRSA, read-out: Staphylococcus aureus MIC, MRSA strain NK-41886
  MIC: 3.13 µg/mL (≈ 8.17 µM)
Staphylococcus aureus; MRSA, read-out: Staphylococcus aureus MIC, MRSA strain NR-13533
  MIC: 3.13 µg/mL (≈ 8.17 µM)
Staphylococcus aureus; MRSA, read-out: Staphylococcus aureus MIC, MRSA strain NR-28983
  MIC: 3.13 µg/mL (≈ 8.17 µM)
Staphylococcus aureus; MRSA, read-out: Staphylococcus aureus MIC, MRSA strain NR-41875
  MIC: 3.13 µg/mL (≈ 8.17 µM)
Staphylococcus aureus; MRSA, read-out: Staphylococcus aureus MIC, MRSA strain NR-41876
  MIC: 3.13 µg/mL (≈ 8.17 µM)
Staphylococcus aureus; MRSA, read-out: Staphylococcus aureus MIC, MRSA strain NR-41877
  MIC: 3.13 µg/mL (≈ 8.17 µM)
Staphylococcus aureus; MRSA, read-out: Staphylococcus aureus MIC, MRSA strain NR-41878
  MIC: 3.13 µg/mL (≈ 8.17 µM)
Staphylococcus aureus; read-out: Staphylococcus aureus MIC, VSSA NR-49121
  MIC: 1.56 µg/mL (≈ 4.07 µM)

## Fc1ccc(Sc2c[nH]c3ccc(Br)cc23)cc1 [Compound 174P, 5-bromo-3-((4-fluorophenyl)thio)-1H-indole]
HepG2 cells
  EC50: 38.3 µg/mL (≈ 119 µM)

## Clc1ccc(Sc2c[nH]c3ccc(Br)cc23)c(Cl)c1 [Compound 174V, 5-bromo-3-((2,4-dichlorophenyl)thio)-1H-indole]
HepG2 cells
  EC50: 24.8 µg/mL (≈ 66.5 µM)

## Nc1cc(Br)ccc1Sc1c[nH]c2ccc(Br)cc12 [Compound 174X, 5-bromo-2-((5-bromo-1H-indol-3-yl)thio)aniline]
HepG2 cells
  EC50: 30.2 µg/mL (≈ 75.9 µM)

## Oc1ccccc1Sc1c[nH]c2ccc(C(F)(F)F)cc12 [Compound 177A, 2-((5-(trifluoromethyl)-1H-indol-3-yl)thio)phenol]
HepG2 cells
  EC50: 24.1 µg/mL (≈ 77.9 µM)

## Oc1ccc(Sc2c[nH]c3ccc(C(F)(F)F)cc23)cc1 [Compound 177B, 4-((5-(trifluoromethyl)-1H-indol-3-yl)thio)phenol]
HepG2 cells
  EC50: 27.7 µg/mL (≈ 89.6 µM)

## Nc1ccccc1Sc1c[nH]c2ccc(C(F)(F)F)cc12 [Compound 177C, 2-((5-(trifluoromethyl)-1H-indol-3-yl)thio)aniline]
HepG2 cells
  EC50: 48.2 µg/mL (≈ 156 µM)

## Fc1ccccc1Sc1c[nH]c2ccc(C(F)(F)F)cc12 [Compound 177D, 3-((2-fluorophenyl)thio)-5-(trifluoromethyl)-1H-indole]
HepG2 cells
  EC50: 27.1 µg/mL (≈ 87.1 µM)

## Fc1ccc2[nH]cc(Sc3ccccc3Br)c2c1 [Compound 177E, 3-((2-bromophenyl)thio)-5-fluoro-1H-indole]
HepG2 cells
  EC50: 31.6 µg/mL (≈ 98.1 µM)

## FC(F)(F)c1ccc2[nH]cc(Sc3ccccc3C(F)(F)F)c2c1 [Compound 177F, 5-(trifluoromethyl)-3-((2-(trifluoromethyl)phenyl)thio)-1H-indole]
HepG2 cells
  EC50: 29.8 µg/mL (≈ 82.5 µM)

## CCc1ccccc1Sc1c[nH]c2ccc(C(F)(F)F)cc12 [Compound 177G, 3-((2-ethylphenyl)thio)-5-(trifluoromethyl)-1H-indole]
HepG2 cells
  EC50: 29.5 µg/mL (≈ 91.8 µM)

## OCc1[nH]c2ccc(Br)cc2c1Sc1ccccc1Br [Compound 177H, (5-bromo-3-((2-bromophenyl)thio)-1H-indol-2-yl)methanol]
HepG2 cells
  EC50: 31.8 µg/mL (≈ 77 µM)

## CCc1ccccc1Sc1c(CO)[nH]c2ccc(C(F)(F)F)cc12 [Compound 177I, (3-((2-ethylphenyl)thio)-5-(trifluoromethyl)-1H-indol-2-yl)methanol]
HepG2 cells
  EC50: 31.3 µg/mL (≈ 89.1 µM)

## c1ccc(Oc2c[nH]c3ccccc23)cc1 [Compound 925C, 3-phenoxy-1H-indole]
Francisella tularensis
  MIC: 8 µg/mL (≈ 38.2 µM)

## CC[C@H](C)[C@H](NC(=O)CN)C(=O)NCC(=O)N[C@@H](C)C(=O)N[C@H](C(=O)N[C@@H](CC(C)C)C(=O)N[C@@H](CCCCN)C(=O)N[C@H](C(=O)N[C@@H](CC(C)C)C(=O)N[C@H](C(=O)N[C@H](C(=O)NCC(=O)N[C@@H](CC(C)C)C(=O)N1CCC[C@H]1C(=O)N[C@@H](C)C(=O)N[C@@H](CC(C)C)C(=O)N[C@H](C(=O)N[C@@H](CO)C(=O)N[C@@H](Cc1c[nH]c2ccccc12)C(=O)N[C@H](C(=O)N[C@@H](CCCCN)C(=O)N[C@@H](CCCNC(=N)N)C(=O)N[C@@H](CCCCN)C(=O)N[C@@H](CCCNC(=N)N)C(=O)N[C@@H](CCC(N)=O)C(=O)N[C@@H](CCC(N)=O)C(N)=O)[C@@H](C)CC)[C@@H](C)CC)[C@@H](C)O)[C@@H](C)O)C(C)C)C(C)C [melittin, reference compound]
S. aureus
  cell permeability by SYTOX green fluorescence: permeabilizes cells

From patent US20250382268A1, “METHODS AND COMPOSITIONS FOR SELECTIVELY INHIBITING PATHOGENIC MICROBES” (priority 2019, published 2025)
